We go through 5 molecules from ChEMBL document CHEMBL2169832, “Conformation-specific effects of Raf kinase inhibitors” (J Med Chem, 2012).

Structures are written as SMILES. A value given as a limit tells only on which side of the number the result lay.

The test system of experiment [1] is HCT-116. Put plainly: cells. Particulars: Homo sapiens.
For experiment [2], the system named is A-375. Kind of experiment: cells. Particulars: Homo sapiens.
Experiment [3] deals with RAF proto-oncogene serine/threonine-protein kinase (Homo sapiens, UniProt P04049). Put plainly: Inhibition of C-Raf.
Chain of RAF proto-oncogene serine/threonine-protein kinase (P04049 whole entry): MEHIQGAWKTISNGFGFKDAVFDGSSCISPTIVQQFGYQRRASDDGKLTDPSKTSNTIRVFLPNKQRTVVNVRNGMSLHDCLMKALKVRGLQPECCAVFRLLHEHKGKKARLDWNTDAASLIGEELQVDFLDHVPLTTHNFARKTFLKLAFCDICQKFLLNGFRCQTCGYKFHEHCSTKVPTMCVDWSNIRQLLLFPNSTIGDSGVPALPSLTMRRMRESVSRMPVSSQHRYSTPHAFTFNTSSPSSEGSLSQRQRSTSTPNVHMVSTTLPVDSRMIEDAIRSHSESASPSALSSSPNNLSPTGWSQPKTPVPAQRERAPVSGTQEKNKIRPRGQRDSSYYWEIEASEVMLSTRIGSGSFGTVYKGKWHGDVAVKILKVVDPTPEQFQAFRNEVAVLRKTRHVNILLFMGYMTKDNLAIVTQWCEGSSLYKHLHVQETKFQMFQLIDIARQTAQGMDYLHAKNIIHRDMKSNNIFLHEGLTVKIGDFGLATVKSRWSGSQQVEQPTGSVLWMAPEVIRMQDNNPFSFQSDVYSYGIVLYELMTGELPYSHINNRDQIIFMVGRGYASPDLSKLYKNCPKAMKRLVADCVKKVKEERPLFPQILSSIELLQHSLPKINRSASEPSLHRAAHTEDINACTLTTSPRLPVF

Broadly, the IC50 is the concentration needed to halve the response being measured. Low values mean higher potency, high ones lower potency. In the case of `CCCS(=O)(=O)Nc1ccc(F)c(C(=O)c2c[nH]c3ncc(Cl)cc23)c1F` [PLX-4720], the IC50 in experiment [1] is 27 µM; in experiment [2], 0.5 µM.

As to `CN(C)CCOc1ccc(-c2nc(-c3ccncc3)c(-c3ccc4c(c3)CC/C4=N\O)[nH]2)cc1` [SB590885], the IC50 is 4.6 µM in experiment [1] and 0.37 µM in experiment [2].

Regarding `OCCn1cc(-c2ccc3c(c2)CC/C3=N\O)c(-c2ccncc2)n1`, the values for the IC50 in experiment [1] and in experiment [2] were > 20 µM and < 0.5 µM, respectively.

On to `CNC(=O)c1cc(Oc2ccc(NC(=O)Nc3ccc(Cl)c(C(F)(F)F)c3)cc2)ccn1` [SORAFENIB], for which the figures for the IC50 in experiment [1] and in experiment [2] were 2 µM and 2.4 µM, respectively.

What is called Ki is the equilibrium dissociation constant of an inhibitor or competing ligand from its target. A lower Ki goes with higher affinity. The molecule `Cc1ccc2c(Nc3ccc(Cl)cc3)nccc2c1Nc1ncccc1-c1ncnc2[nH]cnc12` had an inhibitory constant (Ki) in experiment [3] of 0.0003 µM. Also, the IC50 in experiment [1] was found to be 0.72 µM; in experiment [2] it was 0.31 µM.
